Measurements: publication PMC7509035, “[^68Ga]ABY-028: an albumin-binding domain (ABD) protein-based imaging tracer for positron emission tomography (PET) studies of altered vascular permeability and predictions of albumin-drug conjugate transport” (EJNMMI Research, 2020)
“Also recorded” adds a separate entry of the source.

How the values were obtained:
[1] = system: FaDu xenografts; assay: Longitudinal dual tracer PET in two FaDu xenografts; format: in vivo, human tumor xenograft in NIH-Foxn1mu rat; conditions: rat, [^18F]FDG
Description: (§1) A431 (human epidermoid carcinoma) and FaDu (human squamous carcinoma of the hypopharynx) cell lines were purchased from American Type Culture Collection (ATCC). The cells were cultured in Dulbecco’s Modified Eagle’s Medium (4500 mg/L D-glucose containing L-glutamine) and were maintained at 37 °C in a humidified atmosphere, containing 5% CO2. All media were additionally supplemented with 1 mM sodium pyruvate, 100 units penicillin/mL, 100 μg streptomycin/mL, and 10% fetal bovine serum (Gibco). Media for FaDu cells were further supplemented with 0.1 mM non-essential amino acids and 2 mM HEPES. The integrity of the cell lines was verified with short tandem repeat profiling cell authentication analysis (LGC Standards).
(§2) Rodents were anaesthetized (1.5% isoflurane (Virbac, Carros Cedex, France) blended with air (7:3) in a vaporizer (E-Z systems) delivered through a Microflex non-rebreather mask (Euthanex Corp)) and then i.v. injected (tail vein) with the radiotracer. PET imaging was performed using a microPET Focus 120 (CTI Concorde Microsystems, Knoxville, TN, USA). Data were acquired in list mode and reconstructed using Filtered Back Projection for the constant bed motion (CBM) scans or, to increase the spatial resolution in the dynamic scans, Ordered Subset […] in 2 dimensions, 4 iterations, and 16 subsets. Data, normalized and corrected for randoms, dead time, and radioactivity decay, were processed using MicroPET Manager and evaluated using the Inveon Research Workplace (IRW) software (Siemens Medical Systems, Malvern, PA, USA). The ROI selections were based on the PET images and the radioactivity in ROIs was calculated as mean or maximum standard uptake values (SUVmean or SUVmax) normalized to body weight. Blood ROIs were delineated on the left ventricle of the heart in the first frames of the scan. Liver ROIs were drawn on one lobe. Muscle ROIs were drawn on the front (rat) and hind (mouse) leg muscle on the images summed over the entire scan. […] Growth of the tumor xenografts was monitored by caliper measurements. […]

[2] = system: A431 xenografts; assay: PET uptake in A431 xenografts after nitroglycerin (NG) ointment; format: in vivo, human tumor xenograft in NIH-Foxn1mu rat; conditions: NG ointment 1 mg/tumor cutaneous, [^68Ga]ABY-028 uptake
Description: as §1, §2

O=C[C@H]([18F])[C@@H](O)[C@H](O)[C@H](O)CO [[^18F]FDG, [2-^18F]-2-Fluoro-2-deoxy-D-glucose]
increase of uptake between early and late imaging, day 0 ([1]; both FaDu tumors, 50 to 160 min, day 0): approximately 20% | increase of uptake between early and late imaging, day 3 ([1]; both FaDu tumors, 50 to 160 min, day 3): ~35% | decrease of SUV in tumor center, left tumor, day 3 ([1]; left FaDu tumor, area in center extending to one edge, both time points): approximately 30%

O=[N+]([O-])OCC(CO[N+](=O)[O-])O[N+](=O)[O-] [nitroglycerin, glyceryltrinitrate]
effect of NG on tracer radioactivity in A431 xenografts [2]: increased radioactivity in the A431 xenografts | effect of NG on tracer radioactivity in A431 xenografts ([2]; listed as NG): A more rapid increase in focal radioactivity levels; also recorded: increased uptake of albumin-bound [^68Ga]ABY-028 | effect of NG on tracer radioactivity in A431 xenografts ([2]; listed as Nitroglycerin (NG)): NG-induced changes are revealed by the SUVmax
